Several values for one entry are separate records, joined by “and”; a condition that tells them apart may be missing. Equal values may be shown once.
Experiment: molar heat capacity at constant pressure
Settings: 101.33 kPa

CN(C)C=O [dimethylformamide]
Crystal
Settings	molar heat capacity at constant pressure [J/K/mol]
5 K	0.221
7.54 K	0.753
7.59 K	0.763
8.21 K	0.931
8.29 K	0.964
8.88 K	1.19
9.41 K	1.46
9.52 K	1.55
9.91 K	1.74
10 K	1.79
10.37 K	1.995
10.81 K	2.263
11.24 K	2.533
11.66 K	2.776
12.07 K	2.996
12.44 K	3.216
12.83 K	3.574
13.05 K	3.741
13.48 K	4.017
14.16 K	4.518
14.83 K	5.048
15 K	5.187
15.49 K	5.622
16.15 K	6.115
16.81 K	6.702
17.45 K	7.307
18.1 K	7.9
18.75 K	8.506
19.2 K	8.88
19.64 K	9.354
20 K	9.678
20.28 K	9.986
21.81 K	11.31
24.35 K	13.98
25 K	14.64
26.01 K	15.67
28.18 K	17.9
29.89 K	19.58
30 K	19.63
32.35 K	21.81
34.82 K	24.08
37.3 K	26.24
39.15 K	27.83
40 K	28.52
40.98 K	29.35
42.91 K	30.92
43.45 K	31.29
44.78 K	32.3
45.93 K	33.16
49.17 K	35.67
50 K	36.34
51.08 K	37.1
53.56 K	38.97
56.03 K	40.81
58.51 K	42.63
60 K	43.49
60.98 K	44.1
63.46 K	45.65
65.93 K	47.18
68.4 K	49.19
70 K	49.95
70.88 K	50.36
73.21 K	52.04
75.22 K	52.99
77.32 K	54.31
79.34 K	55.1
80 K	55.45
82.06 K	56.51
84.87 K	57.9
87.85 K	59.4
90 K	60.47
90.82 K	60.89
93.8 K	62.3
96.76 K	63.67
99.73 K	65.16
100 K	65.36
102.7 K	66.55
105.67 K	67.8
106.15 K	68.12
108.64 K	69.18
109.01 K	69.31
110 K	69.68
111.61 K	70.34
111.97 K	70.65
114.57 K	71.6
114.94 K	71.75
117.89 K	73.04
120 K	73.76
120.75 K	74.11
123.71 K	75.3
126.68 K	76.26
129.64 K	77.49
130 K	77.82
132.61 K	78.6
138.24 K	80.9
140 K	81.78
146.91 K	84.72
149.76 K	85.72
150 K	85.56
152.73 K	86.72
155.69 K	87.47
158.66 K	88.47
160 K	89.05
161.62 K	89.38
164.59 K	90.46
167.56 K	91.54
170 K	92.62
170.53 K	92.79
173.49 K	94.53
178.4 K	96.61
180 K	96.36
184.4 K	99.44
184.65 K	101.2
190 K	100.5
191.1 K	105.5
191.8 K	105
198.9 K	124.1
200 K	104.6
200.5 K	130.6
201.1 K	139.5
201.51 K	150.5
210 K	107.7
212.86 K	108.1

Liquid, Vacuum adiabatic calorimetry
Settings	molar heat capacity at constant pressure
212.86 K	141.4 J/K/mol
213 K	142.4 J/K/mol
215.3 K	141.5 J/K/mol
216.03 K	141.8 J/K/mol
217.78 K	141.7 J/K/mol
217.98 K	142 J/K/mol
220 K	141.9 J/K/mol
220.95 K	141.8 J/K/mol
222.56 K	142 J/K/mol
223.91 K	142.2 J/K/mol
225.22 K	142.2 J/K/mol
226.86 K	142.2 J/K/mol
228.18 K	142.4 J/K/mol
229.81 K	142.5 J/K/mol
230 K	142.5 J/K/mol
230.54 K	142.5 J/K/mol
231.13 K	142.7 J/K/mol
232.77 K	142.5 J/K/mol
233.19 K	142.9 J/K/mol
235.55 K	142.5 J/K/mol
235.72 K	142.8 J/K/mol
236.14 K	142.7 J/K/mol
238.66 K	143 J/K/mol
238.73 K	143.2 J/K/mol
239.07 K	143 J/K/mol
240 K	143 J/K/mol
241.6 K	143.1 J/K/mol
242.25 K	143.5 J/K/mol
244.54 K	143.3 J/K/mol
245.77 K	143.3 J/K/mol
247.48 K	143.4 J/K/mol
249.28 K	143.4 J/K/mol
250 K	143.6 J/K/mol
250.41 K	143.5 J/K/mol
252.78 K	143.7 J/K/mol
253.34 K	143.5 J/K/mol
256.26 K	143.9 J/K/mol
256.28 K	144.1 J/K/mol
259.17 K	144 J/K/mol
260 K	144.2 J/K/mol
261.17 K	144.3 J/K/mol
262.1 K	144.3 J/K/mol
262.79 K	144.5 J/K/mol
263.79 K	144.4 J/K/mol
265.01 K	144.6 J/K/mol
266.68 K	144.8 J/K/mol
267.92 K	144.6 J/K/mol
269.56 K	145 J/K/mol
270 K	144.9 J/K/mol
270.82 K	144.8 J/K/mol
272.44 K	145.3 J/K/mol
273.71 K	145 J/K/mol
275.31 K	145.4 J/K/mol
276.6 K	145.4 J/K/mol
278.16 K	145.6 J/K/mol
279.47 K	145.6 J/K/mol
280 K	145.9 J/K/mol
281.01 K	146.1 J/K/mol
283.85 K	146.6 J/K/mol
286.68 K	146.7 J/K/mol
289.51 K	147 J/K/mol
290 K	147.1 J/K/mol
292.32 K	147.4 J/K/mol
298.15 K	148.2 J/K/mol and 148.2 J/K/mol
300 K	148.5 J/K/mol
301.5 K	148.7 J/K/mol
305 K	149 J/K/mol
